Several values for one entry are separate records, joined by “and”; a condition that tells them apart may be missing. Equal values may be shown once.
Key:
[1] = tested on: mpkCCD cells; assay: Forskolin-induced cAMP production in mpkCCD cells; type: cell-based, mouse
Protocol: (§1) 152 Supplementary Methods
(§2) 154 We quantified cAMP production with the cAMP dynamic 2 assay kit (Cisbio Bioassays,
(§3) 155 Codolet, France), which is based on homogeneous time-resolved fluorescence (HTRF)
(§4) 156 technology, as previously described 1. For cells expressing the Apelin-R, 2000 CHO cells/well
(§5) 157 stably expressing rat apelinR-EGFP (clone B70) were added to the 384-well plate and
(§6) 158 stimulated with 5 µmol/l forskolin (FSK) and various concentrations (0.01 pmol/l to 100
(§7) For cells expressing the V2-R, HEK-
(§8) 160 293T cells were transiently transfected with the human V2-R (cDNA Resource Center), after
(§9) 161 48h, 4000 cells/well were added to white 384-well optiplates and stimulated either with 5
(§10) Cells were then lysed, and
(§11) 165 cAMP levels were determined in accordance with the kit manufacturer’s instructions.
(§12) 166 Stimulation was performed in stimulation buffer-IBMX (SBI) (Hank’s balanced salt solution
(§13) 167 (HBSS-Life Technology), 5 mmol/l Hepes, 0.1% BSA stabilizer (Perkin Elmer), 1 mmol/l
(§14) 168 isobutylmethylxanthine (IBMX, Sigma Aldrich, pH 7.4)). For cAMP assay with mpkCCD
(§15) 169 cells, the cells were grown on 12 mm Transwell filters (0.4 μm pore size, Corning Costar,
(§16) 170 Cambridge, MA) until they reach confluency (4-5 days). For forskolin experiments, culture
(§17) 171 media was replaced with SBI in apical and basolateral compartments. After 30 min of […]

[2] = molecular target: anti-K17F serum; assay: Inhibition of [125I]-pE13F binding to anti-K17F serum (apelin RIA, cross-reactivity); design: species or system rabbit; settings: read-out: IC50, recognition by antibody directed against K17F, antiserum 1/4500
Protocol: (§18) The columns were then treated as described in
(§19) Samples (0.1ml) w ere mixed with 125I-
(§20) 212 used this radioligand instead of [Glp65, Nle75, Tyr77] [125I]-apelin13 since the substitution of
(§21) 214 derivatives as described previously by 3,4.
(§22) 216 incubated for 10 min at room temperature.
(§23) This antiserum identified the apelin present in the
(§24) Most of the apelin in human plasma was […]

[3] = Brain apelin-immunoreactive levels in mice (RIA); type: in vivo, mouse
Protocol: Then cells were treated with 10
Results are expressed in femtomoles of cAMP produced
(§25) 187 Apelin radioimmunoassay
(§26) 189 until use for apelin RIA.
(§27) The supernatants were collected and
(§28) The samples were dried and dissolved in
(§29) 201 centrifuged (17000 x g, 4°C, 20 min). The supernatant (4 ml) was collected, and mixed with
as §18, §19, §20, §21, §22, §23, §24

[4] = tested on: rat outer medullary collecting ducts (OMCDs); assay: dDAVP-induced cAMP production in microdissected rat outer medullary collecting ducts; type: cell-based
Protocol: The left kidney of male rats was prepared for nephron microdissection, as previously described[51]. Pieces of OMCDs were isolated under a stereomicroscope.
180 37°C. Then the media was removed and 100 µl of lysis buffer (Cisbio Bioassays, Codolet,
181 France) was added to Transwell filter and plate was incubated at 20°C for 2 hours. Cell
183 384-well plates (Perkin Elmer) according to manufacturer’s instructions (Cisbio Bioassays,
184 Codolet, France). Cyclic AMP levels were measured in microdissected OMCDs by the same
186 per mm tubular length and per 10 min incubation time at 37°C.

[5] = tested on: mpkCCD cells; assay: dDAVP-induced cAMP production in mpkCCD cells; type: cell-based, mouse; settings: 10 µmol/l compound, 10 nmol/l dDAVP, 60 min 37 °C
Protocol: as §1, §2, §3, §4, §5, §6, §7, §8, §9, §10, §11, §12, §13, §14, §15, §16, §17

[6] = Plasma LIT01-196 levels by mass spectrometry after i.v. injection in mice; type: in vivo, mouse; settings: for Apelin (plasma LIT01-196 concentration by mass spectrometry): 300 nmol/kg IV
Excerpt: The detection limit was 6
The within- and between-assay
229 coefficients of variation were 3 and 5%, respectively6. The recovery (mean±SEM) was
233 the elimination rate constant.
236 animals per time point).
242 and 0.05% formic acid; solvent B: acetonitrile). Plasma samples were processed before RP-
244 acetonitrile for protein precipitation and compound extraction. Samples were vortex-stirred
248 standard and compared to standard curves. Standard curves were obtained by analyzing
250 using the same procedure. Pharmacokinetics parameters were calculated using a one-
Peptide injection and blood sample collection were performed by […]

[7] = Brain apelin-immunoreactive levels in rats (RIA); type: in vivo, rat
Protocol: as §25, §26, §27, §28, §29, §18, §19, §20, §21, §22

[8] = tested on: phosphorylated AQP-2 in mpkCCD cells; assay: dDAVP-induced phosphorylation of AQP-2 in mpkCCD cells (immunofluorescence); type: cell-based, mouse; settings: 10 µmol/l compound with 10 nmol/l dDAVP, 1 h
Protocol: mpkCCD cells were seeded in 12 mm Transwell filters of 0.4 μm pore size at a density of 160,000 cells/cm^2 and were grown for 5 days. Twenty-four hours before the experiment, cells were starved with depletion media (1:1 (vol/vol) Ham’s F12:DMEM medium). […] The cell culture medium was removed and cells were fixed with 4% formaldehyde in 1× PBS for 10 min at 4 °C, and permeabilized with 0.5% PBS Triton X-100 for 5 min at 20 °C. Then, inserts were incubated in 5% PBS-BSA for 60 min at 20 °C to block non-specific protein binding. Inserts were subjected to immunostaining with a rabbit anti-AQP-2-pS269 antibody (dilution, 1/200, Phospho Solution, Cliniscience, France) and a mouse monoclonal anti-occludin antibody (dilution, 1/200, Santa Cruz, Cliniscience, France) for 16 h at 4 °C. Inserts were then incubated with goat anti-rabbit Alexa Fluor Plus 647 or goat anti-mouse Alexa Fluor plus 488 secondary antibodies (dilution, 1/500, Invitrogen) for 60 min at 20 °C. […] Slides were analyzed in the x–y and x–z axes under a ×63/1.4 Oil WD: 0.17 mm objective with a Zeiss Axioobserver Z1 inverted spinning-disk microscope equipped with a camera sCMOS Hamamatsu 2048 × 2048/pixel size: 6.45 × 6.45 µm^2 and the lasers (405 nm; 100 mW, 491 nm; 150 mW and 642 nm; 100 mW). […]

[9] = molecular target: T1, rat apelin-R (Rattus norvegicus, UniProt Q9JHG3); assay: Radioligand binding ([125I]-pE13F) to membranes from CHO cells stably expressing rat apelin-R-EGFP; settings: 1 h 20 °C, pH 7.4, new batch of LIT01-196
T1 construct: expressed in transfected cells; membrane preparation
T1 sequence (Q9JHG3 1-377): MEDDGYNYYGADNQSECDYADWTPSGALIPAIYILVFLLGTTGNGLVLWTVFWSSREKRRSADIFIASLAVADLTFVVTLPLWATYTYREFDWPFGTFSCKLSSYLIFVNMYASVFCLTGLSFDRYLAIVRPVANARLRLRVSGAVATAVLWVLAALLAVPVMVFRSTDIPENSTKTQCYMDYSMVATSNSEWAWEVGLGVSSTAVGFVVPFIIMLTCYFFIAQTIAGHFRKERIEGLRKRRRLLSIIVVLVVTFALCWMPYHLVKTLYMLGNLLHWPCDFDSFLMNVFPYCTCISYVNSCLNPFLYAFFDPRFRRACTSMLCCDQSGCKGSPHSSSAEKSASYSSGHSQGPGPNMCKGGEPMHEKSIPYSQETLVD
Protocol: Membranes from CHO cells stably expressing rat apelin-R-EGFP were prepared as previously described[23]. […] The reaction was stopped by adding ice-cold binding buffer and filtering through Whatman GF/C filters. The filters were washed and radioactivity was counted with a Wizard 1470 Wallac gamma counter (PerkinElmer, Turku, Finland).

## CSCC[C@H](NC(=O)[C@@H]1CCCN1C(=O)CNC(=O)[C@H](CCCCN)NC(=O)[C@H](Cc1c[nH]cn1)NC(=O)[C@H](CO)NC(=O)[C@H](CC(C)C)NC(=O)[C@H](CCCNC(=N)N)NC(=O)[C@@H]1CCCN1C(=O)[C@H](CCCNC(=N)N)NC(=O)[C@H](CCC(N)=O)NC(=O)[C@H](CCCNC(=N)N)NC(=O)[C@H](CCCNC(=N)N)NC(=O)[C@H](Cc1ccccc1)NC(=O)[C@H](CCCCN)NC(=O)CCC(F)(F)C(F)(F)C(F)(F)C(F)(F)C(F)(F)C(F)(F)C(F)(F)C(F)(F)F)C(=O)N1CCC[C@H]1C(=O)N[C@@H](Cc1ccccc1)C(=O)O [LIT01-196]
[1]; 1 µmol/l compound, forskolin 1 µmol/l, mpkCCD cells, 30 min 37 °C
  inhibition of cAMP production induced by forskolin: 32%
[1]; Forskolin + peptide, single measurements
  Forskolin-induced cAMP production, value (Fig 2C): 89
[2]
  IC50: 0.56 ± 0.04 nM
[3]; LIT01-196 900 nmol/kg, individual animals (Fig. S2C source data)
  apelin.brain: 0.257 and 0.271 and 0.513 and 0.58
[3]; mice, 30 min after s.c. 900 nmol/kg, saline 0.391 ± 0.045, n = 5
  apelin-IR levels in the brain: 0.440 ± 0.073 pmol/brain
[4]; co-application with dDAVP 0.1 nmol/l, increasing concentrations 50 nmol/l to 50 µmol/l
  inhibition of dDAVP-induced cAMP production in OMCDs: 41%
[4]; peptide 5.10-5M, experiment 1
  cAMP production, value (Fig 2E): 50
[4]; peptide 5.10-5M, experiment 2
  cAMP production, value (Fig 2E): 47
[4]; peptide 5.10-5M, experiment 3
  cAMP production, value (Fig 2E): 56
[4]; peptide 5.10-5M, experiment 4
  cAMP production, value (Fig 2E): 50
[4]; peptide 5.10-5M, experiment 5
  cAMP production, value (Fig 2E): 48
[4]; peptide 5.10-5M, experiment 6
  cAMP production, value (Fig 2E): 49
[4]; peptide 5.10-7M, experiment 1
  cAMP production, value (Fig 2E): 55
[4]; peptide 5.10-7M, experiment 2
  cAMP production, value (Fig 2E): 58
[4]; peptide 5.10-7M, experiment 3
  cAMP production, value (Fig 2E): 52
[4]; peptide 5.10-7M, experiment 4
  cAMP production, value (Fig 2E): 54
[4]; peptide 5.10-7M, experiment 5
  cAMP production, value (Fig 2E): 56
[4]; peptide 5.10-7M, experiment 6
  cAMP production, value (Fig 2E): 53
[4]; peptide 5.10-8M, experiment 1
  cAMP production, value (Fig 2E): 85
[4]; peptide 5.10-8M, experiment 2
  cAMP production, value (Fig 2E): 87
[4]; peptide 5.10-8M, experiment 3
  cAMP production, value (Fig 2E): 90
[4]; peptide 5.10-8M, experiment 4
  cAMP production, value (Fig 2E): 83
[4]; peptide 5.10-8M, experiment 5
  cAMP production, value (Fig 2E): 88
[4]; peptide 5.10-8M, experiment 6
  cAMP production, value (Fig 2E): 81
[5]
  inhibition of dDAVP-induced cAMP production: 79%
[6]; temps.min 5, single animals
  Apelin (plasma LIT01-196 concentration by mass spectrometry): 774.627 and 804.594 and 622.343
[6]; temps.min 15, single animals
  Apelin (plasma LIT01-196 concentration by mass spectrometry): 548.524 and 627.056 and 820.177
[6]; temps.min 28, single animals
  Apelin (plasma LIT01-196 concentration by mass spectrometry): 266.538 and 138.326 and 371.965
[6]; temps.min 60, single animals
  Apelin (plasma LIT01-196 concentration by mass spectrometry): 64.4359 and 230.369 and 324.336
[6]; CD-1, mouse, in vivo, iv, 300 nmol/kg i.v., UHPLC-MS/MS, one-compartment model, 3 animals per time point
  half-life: 29 min
[7]; rats and mice, 30 min after s.c. 900 nmol/kg
  crossing of the blood-brain barrier: does not cross the BBB and does not enter the brain
[7]; rats, 30 min after 900 nmol/kg SC, single animals
  Brain apelin: 1.581 and 0.931 and 1.563 and 1.024 and 1.473
[7]; rats, 30 min after s.c. 900 nmol/kg, saline 1.2 ± 0.15, n = 5
  apelin-IR levels in the brain: 1.3 ± 0.14 pmol/brain
[8]
  phosphorylation of AQP-2 (phospho-AQP-2 immunolabelling): decrease in the phosphorylation of AQP-2
[9]
  Ki: 0.34 ± 0.05 nM

Source: PMC7804859, “A metabolically stable apelin-17 analog decreases AVP-induced antidiuresis and improves hyponatremia” (Nature Communications, 2021)
